Test [1] has as its target T1, human P2X7 (Homo sapiens (Human), UniProt Q99572). Description: Radioligand binding, human P2X7-1321N1 cell membranes, tritiated A-804598. As to conditions: human P2X7-1321N1 membranes, tracer tritiated A-804598, 1 hour 4° C. As to the method:
(§1) P2X7 Antagonism in Recombinant hP2X7 Cells: (a) Ca^2+ Flux (b) Radioligand Binding
(§2) (B) Radioligand binding: human or rat P2X7-1321N1 cells were collected and frozen @−80° C. On the day of the experiment, cell membrane preparations were made according to standard published methods. […] The compound can be prepared as described in the literature. […] The assay was terminated by filtration (GF/B filters pre-soaked with 0.3% PEI) and washed with washing buffer (Tris-HCl 50 mM). The IC50 generated in the binding assay was corrected for tracer concentration and affinity of the tracer to derive at the affinity (Ki) of the test compounds.

Test [2] concerns the target T1, human P2X7. The test can be described thus: Ca2+ flux (FLIPR) in 1321N1 cells expressing recombinant human P2X7 channel. It is filed as cell-based. The conditions noted are these: human P2X7, 250 μM BzATP. As to the method:
as §1
(§3) (A) Ca^2+flux: 1321N1 cells expressing the recombinant human, rat or mouse P2X7 channel was cultured in HyQ DME/(HyClone/Dulbecco's Modified Eagle Medium) high glucose supplemented with 10% Fetal Bovine Serum (FBS) and appropriate selection marker. Cells were seeded at a density of 25000 cells/well (96-well clear bottom black walled plates) in 100 μl volume/well. On the day of the experiment, cell plates were washed with assay buffer, containing (in mM): 130 NaCl, 2 KCl, 1 CaCl2, 1 MgCl2, 10 HEPES, 5 glucose; pH 7.40 and 300 mOs. After the wash, cells were loaded with the Calcium-4 dye (Molecular Device) and incubated in the dark for 60 minutes. Test compounds were prepared at 250× the test concentration in neat DMSO. Intermediate 96-well compound plates were prepared by transferring 1.2 μL of the compound into 300 μL of assay buffer. A further 3× dilution occurred when transferring 50 μL/well of the compound plate to 100 μL/well in the cell plate. Cells were incubated with test compounds and dye for 30 minutes. […] The fluorescence change was measured 180 seconds after adding the agonist.
A general note: Calcium flux is commonly read through the fluorescence of an indicator in the cells.

Test [3] deals with T2, rat P2X7 (Rattus norvegicus (Rat), UniProt Q64663). The test can be described thus: Ca2+ flux (FLIPR) in 1321N1 cells expressing recombinant rat P2X7 channel. It is filed as cell-based. As to conditions: rat P2X7, 250 μM BzATP. As to the method:
as §1, §3

Test [4] concerns the target T2, rat P2X7. The test can be described thus: Radioligand binding, rat P2X7-1321N1 cell membranes, tritiated A-804598. The conditions noted are these: rat P2X7-1321N1 membranes, tracer tritiated A-804598, 1 hour 4° C. As for the experimental part: as §1, §2

Data on four molecules can be found in patent publication US9102686B2, “5,6,7,8,9,10-hexahydro-6,10-epimino[1,2,4]triazolo[4,3-a]azocines as P2X7 modulators” (Janssen Pharmaceutica NV, priority 2013, dated 2015).

T1 sequence (Q99572 whole entry): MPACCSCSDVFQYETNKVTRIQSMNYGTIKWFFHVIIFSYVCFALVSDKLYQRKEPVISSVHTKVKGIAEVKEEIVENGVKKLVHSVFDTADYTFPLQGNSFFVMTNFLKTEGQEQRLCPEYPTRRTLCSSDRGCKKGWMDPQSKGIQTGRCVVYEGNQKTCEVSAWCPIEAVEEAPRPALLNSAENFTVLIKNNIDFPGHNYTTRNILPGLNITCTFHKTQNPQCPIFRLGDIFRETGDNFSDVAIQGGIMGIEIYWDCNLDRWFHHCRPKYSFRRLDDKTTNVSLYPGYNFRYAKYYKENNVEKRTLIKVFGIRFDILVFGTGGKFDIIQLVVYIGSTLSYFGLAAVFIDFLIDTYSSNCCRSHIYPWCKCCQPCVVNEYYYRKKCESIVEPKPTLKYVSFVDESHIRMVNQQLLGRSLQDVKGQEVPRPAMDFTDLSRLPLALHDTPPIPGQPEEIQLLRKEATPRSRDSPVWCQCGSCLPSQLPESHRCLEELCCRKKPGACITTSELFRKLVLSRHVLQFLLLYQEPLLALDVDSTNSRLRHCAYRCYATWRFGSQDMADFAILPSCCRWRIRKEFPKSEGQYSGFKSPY
T2 sequence (Q64663 whole entry): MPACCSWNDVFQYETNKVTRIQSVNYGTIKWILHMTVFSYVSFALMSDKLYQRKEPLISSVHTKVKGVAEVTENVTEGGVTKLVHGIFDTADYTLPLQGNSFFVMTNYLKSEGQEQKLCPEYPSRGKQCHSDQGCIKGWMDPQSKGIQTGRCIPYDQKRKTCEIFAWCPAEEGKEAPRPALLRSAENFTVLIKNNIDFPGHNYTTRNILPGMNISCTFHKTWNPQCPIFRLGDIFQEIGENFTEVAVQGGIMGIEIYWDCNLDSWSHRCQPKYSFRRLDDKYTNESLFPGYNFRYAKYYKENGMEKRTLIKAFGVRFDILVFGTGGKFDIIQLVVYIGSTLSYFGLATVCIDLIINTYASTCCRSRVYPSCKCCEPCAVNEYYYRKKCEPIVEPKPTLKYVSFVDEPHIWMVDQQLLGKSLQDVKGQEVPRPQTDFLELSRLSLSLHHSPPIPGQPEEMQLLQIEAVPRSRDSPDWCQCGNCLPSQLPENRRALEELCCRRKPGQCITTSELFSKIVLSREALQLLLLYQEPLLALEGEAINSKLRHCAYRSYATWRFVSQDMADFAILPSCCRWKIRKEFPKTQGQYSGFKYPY

A word on the Ki: it is a dissociation constant, usually derived from enzyme kinetics or from competition with a known ligand. For orientation: IC50 means the concentration needed to halve the response being measured. On to `O=C(c1cccc(C(F)(F)F)c1Cl)N1[C@H]2CC[C@@H]1c1nnc(-c3cscn3)n1C2` [Example 49, (6S,9R)-10-{[2-Chloro-3-(trifluoromethyl)phenyl]carbonyl}-3-(1,3-thiazol-4-yl)-6,7,8,9-tetrahydro-5H-6,9-epimino[1,2,4]triazolo[4,3-a]azepine], for which the results for the Ki at human P2X7 [1] and on rat P2X7 [4] were 20 nM and 4 nM, respectively. The IC50 at human P2X7 [2] amounted to 5 nM; at rat P2X7 [3], 13.5 nM.
Consider `O=C(c1cccc(C(F)(F)F)c1Cl)N1[C@H]2CC[C@@H]1c1nnc(-c3ccc(F)cc3)n1C2` [Example 40, (6S,9R)-10-{[2-Chloro-3-(trifluoromethyl)phenyl]carbonyl}-3-(4-fluorophenyl)-6,7,8,9-tetrahydro-5H-6,9-epimino[1,2,4]triazolo[4,3-a]azepine], for which the Ki on human P2X7 [1] amounted to 21.9 nM; on rat P2X7 [4] it was 35.5 nM. In addition, the IC50 on human P2X7 [2] amounted to 12.6 nM; at rat P2X7 [3], 10000 nM.
As for `O=C(c1ccc(Cl)c(F)c1Cl)N1[C@H]2CC[C@@H]1c1nnc(-c3cscn3)n1C2` [Example 54, (6S,9R)-10-[(2,4-Dichloro-3-fluorophenyl)carbonyl]-3-(1,3-thiazol-4-yl)-6,7,8,9-tetrahydro-5H-6,9-epimino[1,2,4]triazolo[4,3-a]azepine], the values for the Ki on human P2X7 [1] and on rat P2X7 [4] were 25.1 nM and 7.9 nM, respectively. In addition, the IC50 at human P2X7 [2] came to 6.1 nM; at rat P2X7 [3], 8910 nM.
Taken in the same sequence, the figures for `Cc1c(C(=O)N2[C@H]3CC[C@@H]2c2nnc(-c4cscn4)n2C3)cccc1C(F)(F)F` [Example 53, (6S,9R)-10-{[2-Methyl-3-(trifluoromethyl)phenyl]carbonyl}-3-(1,3-thiazol-4-yl)-6,7,8,9-tetrahydro-5H-6,9-epimino[1,2,4]triazolo[4,3-a]azepine] were 12.6 nM, 7.9 nM, 3.1 nM and 3860 nM.
